The target of one series is SIRT6 (Homo sapiens, UniProt Q8N6T7). Kind of series: Cellular thermal shift assay (CETSA) in HCT116 cells. In kind it is cell-based. The protocol:
CETSA was conducted as previously described. HCT116 cells were seeded in 10-cm cell culture dishes and grown to ~90% confluence. […] Cell pellets were collected by centrifugation (1,000 × g, 5 min, 4 °C), resuspended in 600 μL of 1× PBS, and distributed into different 0.2-mL tubes, each with 40 μL of cell suspension. The tubes were heated at the indicated temperature endpoints (38.5-51.5 °C) for 3 min in a PCR thermocycler. Immediately after heating, the tubes were incubated at room temperature for another 3 min. The samples were subjected to two freeze-thaw cycles in liquid nitrogen. Each cell lysate was centrifuged (15,000 × g for 20 min at 4 °C), and 25 μL of supernatant was collected. The supernatants were lysed in 25 μL of 2× SDS loading buffer at 95 °C for 10 min. Then, the samples were centrifuged, and the supernatants were analyzed by western blotting. Quantification of the SIRT6 level was performed with ImageJ V4. The signal intensity of each protein band on the western blots was normalized to the signal intensity observed at 38.5 °C. The corresponding signal intensities were plotted against temperature in GraphPad Prism V7. Each data point is shown as the mean ± s.e.m. of four independent experiments.

Another series has as its system HCT116. Kind of series: Cell proliferation, CCK-8. In kind it is cell-based. The conditions noted are these: Homo sapiens, HCT-116. On the procedure:
(§1) Cell proliferation was evaluated using a Cell Counting Kit-8 (CCK-8) (Dojindo) following the manufacturer's instructions. Briefly, CRC cells were plated in 96-well plates at a density of 5 × 10^3 cells per well. […] Cells treated with DMSO were used as the […] controls, and the final DMSO concentration in the medium was 0.1%. After 48 h of treatment, 10 μL of CCK-8 solution was added to every well and incubated for 1 h at 37 °C. Then, a microplate reader (Synergy H4 Hybrid Reader, BioTek) was used to measure the absorbance of the solvent at 450 nm. The background of drug and culture medium has been deducted in each well. The relative cell proliferation of each treatment group was expressed as the percentage change relative to the […] control group. Each data point is the mean ± s.d. of two or three independent experiments.

Another series has as its system HCT8. Kind of series: Cell proliferation, CCK-8. It is filed as cell-based. To be noted: Homo sapiens, HCT-8; HCT8, CCK8, 48 h. On the procedure:
as §1

The test system of a further series is HT29. The series can be described thus: Cell proliferation, CCK-8. In kind it is cell-based. The conditions noted are these: Homo sapiens, HT-29; HT29, CCK8, 48 h. The protocol: as §1
The subject of another series is LS1034. The series can be described thus: Cell proliferation, CCK-8. In kind it is cell-based. To be noted: Homo sapiens, LS-1034; LS1034, CCK8, 48 h. The protocol: as §1
The test system of the next series is NCI-H508. The series can be described thus: Cell proliferation, CCK-8. The conditions noted are these: Homo sapiens; NCI-H508, CCK8, 48 h. In kind it is cell-based. The protocol:
as §1

For a further series, the system named is SW1116. Kind of series: Cell proliferation, CCK-8. The conditions noted are these: Homo sapiens, SW 1116; SW1116, CCK8, 48 h. It is filed as cell-based. On the procedure:
as §1

The next series deals with T84. Kind of series: Cell proliferation, CCK-8. It is filed as cell-based. To be noted: Homo sapiens; T84, CCK8, 48 h. On the procedure: as §1
In a further series the test system is 26 CRC cell lines. Kind of series: Cell proliferation, CCK-8, panel of 26 CRC cell lines. In kind it is cell-based. To be noted: Homo sapiens, CCK-8, 48 h. The protocol: as §1
Series [1] deals with CRC cells (HCT116, HT29, and SW480). Kind of series: Calcein-AM/PI live-dead double staining. In kind it is cell-based. The conditions noted are these: 10 μM MDL-811, CRC cells. The protocol: Live-dead cell staining was performed following the protocol of a Calcein-AM/PI Double Stain Kit (Yeasen). Briefly, 3 × 10^4 cells per well were seeded into 24-well plates. […] Then, cell images were acquired with a fluorescence microscope (Nikon Inverted Research Microscope Eclipse Ti). For each assay, five random fields of view per well were imaged at 10× magnification.

In series [2] the test system is PDX tumors from CRC patients #1 and #2. The series can be described thus: CRC PDX models. It is filed as in vivo, nude mice. The conditions noted are these: 30 mg/kg intraperitoneally every other day for 12 days, two PDX models. On the procedure:
All animal studies were performed following federal and institutional guidelines approved by the Institutional Animal Care and Use Committee at Shanghai Jiao-Tong University School of Medicine. To establish the CDXs, HCT116 cells (1 × 10^6) suspended in 100 μL of 1× PBS were injected subcutaneously into the flanks of six-week-old male BALB/c nude mice. To establish the PDXs, primary tumors resected from two independent CRC patients (patient #1 and #2) were collected in the culture medium. The necrotic and supporting tissues were carefully removed using sterilized surgical blades. The gross tumor was cut into fragments (2-3 mm in diameter) and inoculated subcutaneously into the flanks of nude mice. The mice were monitored daily, and caliper measurements began when tumors became visible. The tumor volume was monitored every other day via calipers. The tumor volume was calculated using the following formula: (L × W ^2) / 2, where L and W refer to the tumor diameter along the longitudinal and transverse axes, respectively. When the mean tumor volume was approximately 100 to 250 mm^3, the mice were randomly grouped (n = 6 per group for CDXs, n = 8 per group for PDXs), and treatment was initiated. […] After treatment or if meeting the humane endpoint criteria, the mice were sacrificed by CO2 asphyxiation. The tumors were dissected, imaged, and weighed. […]

Another series concerns HCT116 xenograft tumors. The series can be described thus: Combination treatment in the HCT116 CDX model. In kind it is in vivo, BALB/c nude mice. The conditions noted are these: 15 mg/kg MDL-811 plus 50 μg/kg 1,25(OH)2D3 intraperitoneally every other day for 14 days, vs vehicle or single drug.
Another series concerns CYP24A1. Kind of series: RT-qPCR of CYP24A1 mRNA in CRC cells. In kind it is cell-based, human. The protocol:
Total RNA was extracted with TRIzol reagent (Invitrogen) according to the manufacturer's instructions. For cDNA synthesis, 1 μg of total RNA was reverse transcribed using a FastKing RT Kit (Tiangen). RT-qPCRs were run in triplicate using SYBR Green master mix (Roche) in an ABI 7900 Thermal Cycler (Applied Biosystems) according to the manufacturer's instructions. RT-qPCRs were performed in triplicate, and the mean cycle threshold (Ct) values were calculated for expression analysis. The mRNA levels of target genes were calculated using the 2^-ΔΔCt method. The expression data were normalized to β-actin expression levels and are presented as the mean ± s.e.m. of three independent experiments.
Background: In qPCR the cycle at which signal appears reflects the starting amount.

Several values for one entry are separate records, joined by “and”; a condition that tells them apart may be missing. Equal values may be shown once. Read-outs that look alike come from different tables or passages of the source. A value given as a limit tells only on which side of the number the result lay.

Chain of SIRT6 (Q8N6T7 whole entry): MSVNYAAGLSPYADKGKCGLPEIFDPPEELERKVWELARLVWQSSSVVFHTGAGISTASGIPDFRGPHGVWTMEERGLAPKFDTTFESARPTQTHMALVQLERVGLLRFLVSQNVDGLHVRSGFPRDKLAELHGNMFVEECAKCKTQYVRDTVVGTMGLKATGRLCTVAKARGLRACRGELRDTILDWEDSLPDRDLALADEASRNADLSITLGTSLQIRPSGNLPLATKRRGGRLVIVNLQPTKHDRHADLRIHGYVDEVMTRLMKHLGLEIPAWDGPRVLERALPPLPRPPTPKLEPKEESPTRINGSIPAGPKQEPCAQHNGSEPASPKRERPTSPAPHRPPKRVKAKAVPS

In the case of `Cc1cc(F)c(Br)cc1NS(=O)(=O)c1ccc(NS(=O)(=O)c2cc(Cl)cc(Cl)c2)cc1CN1CCOC[C@H]1C` [MDL-811], on SIRT6 (10 µM MDL-811, 24 h, HCT116 cells, DMSO 45.8 ± 0.3, mean ± s.e.m., four experiments), the “Melting Temperature (Tm) of SIRT6” value is 47.6 ± 0.1 °C and 47.6 °C. The ΔTm at 10 µM at SIRT6 (HCT-116) stood at 1.8 ± 0.2 °C. The IC50 with HCT116 (HCT116, CCK8, 48 h, read-out: IC50 ± s.d.) came to 4.7 ± 0.2 µM; with HCT116 (HCT116, CCK-8, 48 h, Figure S6, mean ± s.e.m. of three experiments, read-out: IC50), 4.8 ± 0.2 µM; in the series with HCT8 it was 20.1 ± 2 µM; in the series on HT29, 7 ± 1.1 µM; in the series with LS1034 it was 31.9 ± 0.7 µM; in the series with NCI-H508, 9.7 ± 1.2 µM. Moreover, the IC50 is 5.7 ± 0.3 µM in the series with SW1116; 13 ± 1.4 µM in the series on T84; under 25 µM in the series on 26 CRC cell lines (more than 75% (20 of 26) of the CRC cell lines, read-out: IC50 in 20 of 26 CRC cell lines); 4.7 to 61 µM in the series with 26 CRC cell lines (range over 26 CRC cell lines, read-out: IC50 values across the 26 CRC cell lines). The “cell death, live-dead double staining” value in series [1] is “did not cause observable cell death”. Moreover, the tumor growth result in series [2] was “strong tumor regression in both PDX models”. Further, in the series on HCT116 xenograft tumors, the “tumor growth, cotreatment” value was “dramatically enhanced tumor growth regression”. The “1,25(OH)2D3-enhanced CYP24A1 transcription, cotreatment” value in the series on CYP24A1 (HCT116 and HT29 cells, MDL-811 (5 µM) plus 1,25(OH)2D3 (5 µM), 48 h) is given as “effectively abolished”. Moreover, the “CYP24A1 mRNA expression levels” value in the series with CYP24A1 (HCT116 cells, 10 µM MDL-811, 48 h) was “markedly decreased CYP24A1 mRNA expression levels”.

Broadly, the ΔTm is the change in melting temperature against a reference sample. In general, IC50 refers to the concentration that gives 50% inhibition.

Source of the values: PMC7255010, “Small-molecule activating SIRT6 elicits therapeutic effects and synergistically promotes anti-tumor activity of vitamin D3 in colorectal cancer” (Theranostics, 2020).
